Values of other authors as cited in patent publication US6768024B1, “Triamine derivative melanocortin receptor ligands and methods of using same” (Lion Bioscience AG, priority 2000, dated 2004).

How the values were obtained:
rodent models = conditions: normal, Zucker fatty and diet-induced obesity rodent models
rats = conditions: IP, ICV
human subjects = conditions: pilot phase I

CC(C)CC(N(C)C)C1(c2ccc(Cl)cc2)CCC1 (stereo not drawn) [Sibutramine]
body weight (rodent models): lower body weight

Ac-Nle-Gln-His-(D)-Phe-Arg-(D)-Trp-Gly-NH2 [HP228]
hypophagia and weight loss (rats): notable hypophagia and weight loss

MELANOTAN-II
penile erections (human subjects): cause penile erections
